Among the data in PubChem BioAssay (NCI) are GI50 and TGI values, retold here.

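The compound was tested at five concentrations on cells cultured in 96-well plates, with a 48-hour exposure period. Abbreviation: GI50, concentration required for 50% inhibition of growth. Definition used: TGI = concentration required for complete inhibition of growth.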 Where only a bound is given, the exact number is not on record here.

Among the test systems are MDA-MB-435; CCRF-CEM leukemia; HOP-62 NSCLC; LOX IMVI melanoma; HCT-116 colon; PC-3 prostate; HL-60(TB) leukemia; DU-145 prostate; SNB-19 CNS; HT29 colon.
Assay in all cases: growth of human tumour cells (NCI), 48 h

As to `COc1ccc(C2=C(c3cc(OC)c(OC)c(OC)c3)C(=O)CC2)cc1`, the GI50 with MDA-MB-435 was 0.0291 µM; in the assay on CCRF-CEM leukemia, 0.21 µM; in the assay on HOP-62 NSCLC it was 0.355 µM; with LOX IMVI melanoma, 0.441 µM; in the assay with HCT-116 colon, 0.156 µM; in the assay on PC-3 prostate, 0.203 µM. Moreover, the GI50 is 0.11 µM in the assay on HL-60(TB) leukemia, 0.294 µM in the assay with DU-145 prostate, 0.41 µM with SNB-19 CNS and 0.0845 µM with HT29 colon. Moreover, the TGI in the assay with MDA-MB-435 is 0.12 µM; in the assay on HOP-62 NSCLC, above 100 µM; in the assay with LOX IMVI melanoma, above 100 µM; in the assay with HCT-116 colon, above 100 µM; in the assay with PC-3 prostate, above 100 µM; with HL-60(TB) leukemia, 1.21 µM. The TGI in the assay with SNB-19 CNS was above 100 µM; in the assay on HT29 colon it was 15.3 µM.

As for `C#CCNC(=O)CC[C@]1(C)[C@H]2CC[C@@H]3[C@@H]([C@@](C)(O)CCC=C(C)C)CC[C@@]3(C)[C@]2(C)CC[C@H]1C(=C)C`, the GI50 is 38.1 µM in the assay on MDA-MB-435; 6.77 µM with CCRF-CEM leukemia; 35 µM in the assay on HOP-62 NSCLC; 9.73 µM in the assay with LOX IMVI melanoma; 17.8 µM in the assay on HCT-116 colon; 17.4 µM with PC-3 prostate. In addition, the GI50 is 1.19 µM in the assay on HL-60(TB) leukemia, 34.8 µM with DU-145 prostate, 56.1 µM in the assay on SNB-19 CNS and 18.8 µM in the assay with HT29 colon. Also, the TGI in the assay on MDA-MB-435 is above 100 µM; with CCRF-CEM leukemia, 28.7 µM; with HOP-62 NSCLC it was above 100 µM; in the assay with LOX IMVI melanoma it was 27.4 µM; with HCT-116 colon, 35.6 µM; in the assay on PC-3 prostate, 70 µM. In addition, the TGI with HL-60(TB) leukemia was 15.9 µM; in the assay on DU-145 prostate, above 100 µM; with SNB-19 CNS it was above 100 µM; in the assay with HT29 colon, 42.9 µM.

As to `COC(=O)Nc1nc2cc3c(cc2s1)OCCO3`, the GI50 in the assay on MDA-MB-435, in the assay with CCRF-CEM leukemia, in the assay on HOP-62 NSCLC, in the assay with LOX IMVI melanoma, in the assay with HCT-116 colon and with PC-3 prostate was above 50 µM throughout. In addition, the GI50 with HL-60(TB) leukemia, with DU-145 prostate, in the assay with SNB-19 CNS and in the assay with HT29 colon was above 50 µM in each case. The TGI with MDA-MB-435, with CCRF-CEM leukemia, with HOP-62 NSCLC, with LOX IMVI melanoma, in the assay on HCT-116 colon and in the assay with PC-3 prostate was above 50 µM in each case. Moreover, the TGI with HL-60(TB) leukemia, in the assay on DU-145 prostate, in the assay with SNB-19 CNS and in the assay on HT29 colon was above 50 µM each time.

`O=c1[nH]c(SCc2c(Cl)c(Cl)c(Cl)c(Cl)c2Cl)nc(=S)[nH]1`: the TGI in the assay with MDA-MB-435 is above 100 µM; in the assay on CCRF-CEM leukemia, 36.9 µM; with HOP-62 NSCLC, above 100 µM; with LOX IMVI melanoma, above 100 µM; in the assay on HCT-116 colon it was above 100 µM; in the assay with PC-3 prostate it was above 100 µM. The TGI in the assay with HL-60(TB) leukemia was 51.4 µM; in the assay on DU-145 prostate, above 100 µM; in the assay on SNB-19 CNS, above 100 µM; in the assay with HT29 colon it was above 63 µM.

As to `COc1cccc(C2C3=C(COC3=O)N(CCO)c3cc4c(cc32)OCCO4)c1` (stereo not drawn), the GI50 with MDA-MB-435 is 0.0179 µM; in the assay with CCRF-CEM leukemia it was 0.151 µM; in the assay with HOP-62 NSCLC, 0.287 µM; in the assay with LOX IMVI melanoma it was 0.288 µM; with HCT-116 colon it was 0.152 µM; with PC-3 prostate, 0.12 µM. Further, the GI50 in the assay on HL-60(TB) leukemia was 0.111 µM; in the assay on DU-145 prostate it was 0.157 µM; in the assay on HT29 colon, 0.124 µM. Moreover, the TGI in the assay on MDA-MB-435 was 0.0767 µM; in the assay with CCRF-CEM leukemia, above 50 µM; with HOP-62 NSCLC it was above 50 µM; with LOX IMVI melanoma, above 50 µM; in the assay with HCT-116 colon, 3.16 µM; with PC-3 prostate, above 50 µM. The TGI in the assay with HL-60(TB) leukemia is 0.422 µM; in the assay with DU-145 prostate, 0.65 µM; in the assay with SNB-19 CNS it was above 15.8 µM; with HT29 colon it was 1.34 µM.

On to `CC[CH2][Sn]([Cl])([Cl])[CH2]CC`, for which the GI50 was 12.5 µM in the assay with MDA-MB-435; 1.24 µM with CCRF-CEM leukemia; 16.6 µM with HOP-62 NSCLC; 2.8 µM in the assay with LOX IMVI melanoma; 13.1 µM with HCT-116 colon; 16.2 µM in the assay with PC-3 prostate. The GI50 in the assay on HL-60(TB) leukemia is 2.94 µM; with DU-145 prostate it was 14.5 µM; with SNB-19 CNS, 13.2 µM; in the assay with HT29 colon, 14.4 µM. In addition, the TGI is 26.9 µM in the assay with MDA-MB-435; above 100 µM with CCRF-CEM leukemia; 31.3 µM in the assay on HOP-62 NSCLC; 11.4 µM with LOX IMVI melanoma; 25.8 µM with HCT-116 colon; 35.9 µM in the assay on PC-3 prostate. In addition, the TGI in the assay with HL-60(TB) leukemia is above 100 µM; in the assay on DU-145 prostate it was 28.6 µM; in the assay on SNB-19 CNS it was 25.9 µM; with HT29 colon, 30.9 µM.

`COc1ccc(/C=C\c2cc(OC)c(OC)c(OC)c2)cc1OC(=O)c1cccc(Cn2cc(CCOC(=O)c3cccc(Cn4nnc5c4C(=O)c4ccccc4C5=O)c3)nn2)c1`: the GI50 is below 0.01 µM in the assay on MDA-MB-435; below 0.01 µM in the assay on CCRF-CEM leukemia; 0.0381 µM with HOP-62 NSCLC; 0.0149 µM in the assay on LOX IMVI melanoma; below 0.01 µM in the assay with HCT-116 colon; below 0.01 µM with PC-3 prostate. Also, the GI50 was below 0.01 µM with HL-60(TB) leukemia, below 0.01 µM in the assay with DU-145 prostate and 0.321 µM with HT29 colon. Further, the TGI in the assay on CCRF-CEM leukemia was above 100 µM; in the assay with HOP-62 NSCLC it was 27 µM; with LOX IMVI melanoma, above 100 µM; in the assay with HCT-116 colon, above 33.2 µM; in the assay with PC-3 prostate, above 100 µM; in the assay on HL-60(TB) leukemia it was 0.0125 µM. For the same compound, in the assay on SNB-19 CNS, the TGI turned out to be 30.6 µM.

On to `OC(COc1cccc2ccccc12)CN1CCN(c2ccccc2)CC1` (stereo not drawn), for which the GI50 in the assay with MDA-MB-435 is 15.5 µM; with CCRF-CEM leukemia it was 17.9 µM; with HOP-62 NSCLC it was 13.4 µM; with LOX IMVI melanoma it was 15.8 µM; in the assay on HCT-116 colon, 13.4 µM; with PC-3 prostate, 12.5 µM. Moreover, the GI50 was 21.1 µM with HL-60(TB) leukemia, 17.7 µM with DU-145 prostate, 15.8 µM with SNB-19 CNS and 15 µM in the assay on HT29 colon. Further, the TGI in the assay on MDA-MB-435 stood at 30.5 µM; in the assay with CCRF-CEM leukemia it was 53.2 µM; in the assay on HOP-62 NSCLC it was 26.8 µM; in the assay on LOX IMVI melanoma, 31.1 µM; in the assay on HCT-116 colon it was 27 µM; in the assay on PC-3 prostate, 29 µM. Moreover, the TGI in the assay on HL-60(TB) leukemia was 52.4 µM; in the assay on DU-145 prostate, 31.9 µM; with SNB-19 CNS, 30.7 µM; in the assay on HT29 colon, 30 µM.
